# US20260317356A1, “SMALL MOLECULE MODULATORS OF OGG1” (AZKARRA THERAPEUTICS, INC., priority 2023, published 2026)
# Target: hOGG1 (Homo sapiens, UniProt O15527)
# Assay: Biochemical fluorescence assay to measure enzymatic activity of hOGG1 (OGG1/APEX IC50)
# Design: Protein His-hOGG1 (12-323) was prepared; His (N); host or cells: E. coli
# Details: 1 nM OGG1+2 nM APEX+6 nM dsDNA (8-oxo-dG substrate); pH 7.5; RT 40 min; read-out: OGG1/APEX IC50
# Experimental: Biological Example 1: Biochemical Assay to Measure Enzymatic Activity of hOGG1 (OGG1/APEX IC50)
# The reported fluorescence-based assay (Donley et al ACS Chem Biol 2015; 10 (10), 2334-2343) was modified to include hAPE1/APEX1 protein. The oligonucleotide substrate with 8-oxo-dG lesion at X was prepared (LGC Biosearch, Petaluma, CA):
# Protein His-hOGG1 (12-323) was prepared by Chempartner Corporation via E. coliexpression and purification by Ni-NTA and S200 column to afford 95% purity by SDS-PAGE and SEC-HPLC analysis and hAPE1/APEX1 was purchased (SinoBiological). The assay was run in 384-well plates following the general procedure: (1) compound dilution; (2) addition of hOGG1/APEX1 to compound wells; (3) addition of DNA substrate to compound wells; (4) read Ex520/Em600 (TAMRA) fluorescence signal after 40 minutes; (5) calculate % inhibition/compound concentration; (6) calculate dose-response curve and IC50 value.
# • (1) 20 mM of compound solution was prepared in DMSO; • (2) Compounds were diluted to 10 mM in DMSO in ECHO Source plate (Labcyte PP-0200), by mixing […] DMSO; • (3) 4× dilution of compounds, for 10 points, by mixing […] DMSO; and • (4) Dispensed 150 nL compounds to assay plate (Corning 3573) in column 3-22. Dispensed 150 nL DMSO to Min and Max control wells in column 1-2 and column 23-24.
# • (1) Assay buffer was prepared (20 mM Tris pH 7.5, 100 mM KCl, 0.1% BSA, 0.01% Tween). • (2) […] buffer was added to Min control wells (Column 1-2). • (3) Enzyme was diluted to 2× with buffer (2 nM OGG1+4 nM APEX1). Dispensed […] (except Min control wells). Shake at 500 rpm at RT for 20 min. • (4) DNA substrate diluted to 2× with buffer (12 nM). Dispensed […]. Final concentration: 1 nM OGG1+2 nM APEX+6 nM dsDNA. Shake at RT for 40 min. • (5) Ex520/Em600 (TAMRA) was read.
# • (1) Calculated respective mean of Max and Min control wells. • (2) Converted data to percentage inhibition.
# Inhibition (%)=(Max mean−value)/(Max mean−Min mean)×100% • (3) Calculated sigmoidal curve (3-parameter) and IC50 (using GraphPad Prism software).
# hOGG1, sequence (O15527 12-323): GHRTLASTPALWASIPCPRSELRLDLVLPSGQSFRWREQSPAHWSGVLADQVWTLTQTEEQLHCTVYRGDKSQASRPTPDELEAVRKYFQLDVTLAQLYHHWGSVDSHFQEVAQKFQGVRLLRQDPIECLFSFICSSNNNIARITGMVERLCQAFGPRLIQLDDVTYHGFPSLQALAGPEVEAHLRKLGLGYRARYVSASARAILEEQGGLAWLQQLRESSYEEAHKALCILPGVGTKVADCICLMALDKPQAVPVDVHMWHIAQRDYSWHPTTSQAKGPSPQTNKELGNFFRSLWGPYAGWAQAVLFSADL
row,SMILES,IC50
1,"COc1cc(NC(=O)[C@H]2CC[C@@H](N3Cc4c(C)cc(N)cc4NC3=O)CC2)ccc1C [Example 76, (1s,4s)-4-(7-amino-5-methyl-2-oxo-1,2-dihydroquinazolin-3(4H)-yl)-N-(3-methoxy-4-methylphenyl)cyclohexanecarboxamide]",< 100 nM
2,"Cc1cc(NCCN(C)C)cc2c1CN([C@H]1CC[C@@H](C(=O)Nc3nc4ccccc4s3)CC1)C2=O [Example 129, (1s,4s)-N-(Benzo[d]thiazol-2-yl)-4-(6-((2-(dimethylamino)ethyl)amino)-4-methyl-1-oxoisoindolin-2-yl)cyclohexane-1-carboxamide]",100 to 1000 nM
3,"Cc1cccc2c1CN([C@H]1CC[C@@H](C(=O)Nc3ccc(Cl)c(F)c3)CC1)C(=O)N2 [Example 90, (1s,4s)-N-(4-chloro-3-fluorophenyl)-4-(5-methyl-2-oxo-1,2-dihydroquinazolin-3(4H)-yl)cyclohexanecarboxamide]",100 to 1000 nM
4,"Cc1cccc2c1CN([C@H]1CC[C@@H](C(=O)Nc3cc4ccccc4[nH]3)CC1)C(=O)N2 [Example 112, (1s,4s)-N-(1H-indol-2-yl)-4-(5-methyl-2-oxo-1,2-dihydroquinazolin-3(4H)-yl)cyclohexanecarboxamide]",< 100 nM
5,"COc1cc(NC(=O)[C@H]2CC[C@@H](N3Cc4c(Br)cc(NCC5CCCN5)cc4C3=O)CC2)ccc1C (some centres unmarked) [Example 173, (1s,4s)-4-(4-Bromo-1-oxo-6-(pyrrolidin-2-ylmethylamino)isoindolin-2-yl)-N-(3-methoxy-4-methylphenyl)cyclohexanecarboxamide]",< 100 nM
6,"CNC(=O)c1cc(C)c2c(c1)NC(=O)N([C@H]1CC[C@@H](C(=O)Nc3ccc(C)c(OC)c3)CC1)C2 [Example 80, 3-((1s,4s)-4-(3-methoxy-4-methylphenylcarbamoyl)cyclohexyl)-N,5-dimethyl-2-oxo-1,2,3,4-tetrahydroquinazoline-7-carboxamide]",< 100 nM
7,"COc1cc(NC(=O)[C@H]2CC[C@@H](N3Cc4c(Br)cc(NC(=O)CN(C)C)cc4C3=O)CC2)ccc1C [Example 202, (1s,4s)-4-(4-bromo-6-(2-(dimethylamino)acetamido)-1-oxoisoindolin-2-yl)-N-(3-methoxy-4-methylphenyl)cyclohexanecarboxamide]",100 to 1000 nM
8,"COc1cc(NC(=O)[C@H]2CC[C@@H](N3Cc4c(ccnc4C)NC3=O)CC2)ccc1C [Example 43, (1s,4s)-N-(3-Methoxy-4-methylphenyl)-4-(5-methyl-2-oxo-1,2-dihydropyrido[4,3-d]pyrimidin-3(4H)-yl)cyclohexanecarboxamide]",< 100 nM
9,"COc1ccc(NC(=O)[C@H]2CC[C@@H](N3Cc4c(C)cc(NCCN(C)C)cc4C3=O)CC2)cc1F [Example 257, (1s,4s)-4-(6-(2-(Dimethylamino)ethylamino)-4-methyl-1-oxoisoindolin-2-yl)-N-(3-fluoro-4-methoxyphenyl)cyclohexanecarboxamide]",< 100 nM
10,"COc1cc(NC(=O)[C@H]2CC[C@@H](N3Cc4c(C)ccc(OCC5(C)COC5)c4NC3=O)CC2)ccc1C [Example 23, (1s,4s)-N-(3-Methoxy-4-methylphenyl)-4-(5-methyl-8-((3-methyloxetan-3-yl)methoxy)-2-oxo-1,2-dihydroquinazolin-3(4H)-yl)cyclohexanecarboxamide]",100 to 1000 nM
11,"COc1cc(NC(=O)[C@H]2CC[C@@H](N3Cc4c(C)cc(C5=CCNCC5)cc4C3=O)CC2)ccc1C [Example 146, (1s,4s)-N-(3-Methoxy-4-methylphenyl)-4-(4-methyl-1-oxo-6-(1,2,3,6-tetrahydropyridin-4-yl)isoindolin-2-yl)cyclohexanecarboxamide]",< 100 nM
12,"COc1cc(NC(=O)[C@H]2CC[C@@H](N3Cc4c(Br)cc(NC(=O)CN5CCC5)cc4C3=O)CC2)ccc1C [Example 200, (1s,4s)-4-(6-(2-(Azetidin-1-yl)acetamido)-4-bromo-1-oxoisoindolin-2-yl)-N-(3-methoxy-4-methylphenyl)cyclohexanecarboxamide]",100 to 1000 nM
13,"COc1cc(NC(=O)[C@H]2CC[C@@H](N3Cc4c(C)cc(NCCN(C)C)cc4NC3=O)CC2)ccc1C [Example 96, (1s,4s)-4-(7-(2-(dimethylamino)ethylamino)-5-methyl-2-oxo-1,2-dihydroquinazolin-3(4H)-yl)-N-(3-methoxy-4-methylphenyl)cyclohexanecarboxamide]",< 100 nM
14,"COc1cc(NC(=O)[C@H]2CC[C@@H](n3[nH]c4c(Br)cccc4c3=O)CC2)ccc1C (single isomer, unassigned) [Example 160, (1s,4s)-4-(7-Bromo-3-oxo-1H-indazol-2(3H)-yl)-N-(3-methoxy-4-methylphenyl)cyclohexanecarboxamide]",100 to 1000 nM

# Results, then the compound that gave them:
row,IC50,SMILES
1,1000 to 10000 nM,"COc1cc(NC(=O)[C@H]2CC[C@@H](N3Cc4c(cccc4C(F)F)C3=O)CC2)ccc1C [Example 172, (1s,4s)-4-(4-(Difluoromethyl)-1-oxoisoindolin-2-yl)-N-(3-methoxy-4-methylphenyl)cyclohexanecarboxamide]"
2,1000 to 10000 nM,"Cc1ccc(NC(=O)[C@H]2CC[C@@H](N3Cc4c(C)cccc4C3=O)CC2)cc1C#N [Example 218, (1s,4s)-N-(3-Cyano-4-methylphenyl)-4-(4-methyl-1-oxoisoindolin-2-yl)cyclohexanecarboxamide]"
3,1000 to 10000 nM,"COc1cc(NC(=O)[C@H]2CC[C@@H](N3Cc4c(O)cccc4C3=O)CC2)ccc1C [Example 197, (1s,4s)-4-(4-Hydroxy-1-oxoisoindolin-2-yl)-N-(3-methoxy-4-methylphenyl)cyclohexanecarboxamide]"
4,1000 to 10000 nM,"Cc1ccc(NC(=O)[C@H]2CC[C@@H](N3Cc4c(C)cccc4C3=O)CC2)c(O)c1 [Example 230, (1s,4s)-N-(2-Hydroxy-4-methylphenyl)-4-(4-methyl-1-oxoisoindolin-2-yl)cyclohexanecarboxamide]"
5,1000 to 10000 nM,"COc1cc(NC(=O)[C@H]2CC[C@@H](N3Cc4c(C)cccc4C3=O)CC2)ccc1CO [Example 145, (1s,4s)-N-(4-(Hydroxymethyl)-3-methoxyphenyl)-4-(4-methyl-1-oxoisoindolin-2-yl)cyclohexanecarboxamide]"
6,1000 to 10000 nM,"COc1cc(NC(=O)[C@H]2CC[C@@H](N3Cc4c(cccc4C4CC4)C3=O)CC2)ccc1C [Example 151, (1s,4s)-4-(4-Cyclopropyl-1-oxoisoindolin-2-yl)-N-(3-methoxy-4-methylphenyl)cyclohexanecarboxamide]"
7,1000 to 10000 nM,"Cc1cccc2c1CN([C@H]1CC[C@@H](C(=O)Nc3ccc4cnn(C)c4c3)CC1)C2=O [Example 215, (1s,4s)-4-(4-Methyl-1-oxoisoindolin-2-yl)-N-(1-methyl-1H-indazol-6-yl)cyclohexanecarboxamide]"
8,< 100 nM,"COc1cc(NC(=O)[C@H]2CC[C@@H](N3Cc4c(ccc(O)c4C)NC3=O)CC2)ccc1C [Example 60, (1s,4s)-4-(6-Hydroxy-5-methyl-2-oxo-1,2-dihydroquinazolin-3(4H)-yl)-N-(3-methoxy-4-methylphenyl)cyclohexanecarboxamide]"
9,100 to 1000 nM,"COc1cc(NC(=O)[C@H]2CC[C@@H](N3Cc4c(ccc(O)c4Br)C3=O)CC2)ccc1C [Example 189, (1s,4s)-4-(4-Bromo-5-hydroxy-1-oxoisoindolin-2-yl)-N-(3-methoxy-4-methylphenyl)cyclohexanecarboxamide]"
10,100 to 1000 nM,"COc1cc(NC(=O)[C@H]2CC[C@@H](N3Cc4c(Br)cc(N)cc4C3=O)CC2)ccc1C [Example 165, (1s,4s)-4-(6-Amino-4-bromo-1-oxoisoindolin-2-yl)-N-(3-methoxy-4-methylphenyl)cyclohexanecarboxamide]"
11,100 to 1000 nM,"COc1cc(NC(=O)[C@H]2CC[C@@H](N3Cc4c(cccc4C(F)(F)F)NC3=O)CC2)ccc1C [Example 70, (1s,4s)-N-(3-methoxy-4-methylphenyl)-4-(2-oxo-5-(trifluoromethyl)-1,2-dihydroquinazolin-3(4H)-yl)cyclohexanecarboxamide]"
12,100 to 1000 nM,"CCc1ccc(NC(=O)[C@H]2CC[C@@H](N3Cc4c(C)cccc4NC3=O)CC2)cc1OC [Example 95, (1s,4s)-N-(4-ethyl-3-methoxyphenyl)-4-(5-methyl-2-oxo-1,2-dihydroquinazolin-3(4H)-yl)cyclohexanecarboxamide]"
